Source: the supplement of paper PMC10307832

Assays:
Assay in all cases: relative viability (nuclei count vs DMSO), 5 days (fraction); higher = more cells survive
Tosedostat + Vorinostat = compound: CC(C)C[C@@H](C(=O)N[C@H](C(=O)OC1CCCC1)c1ccccc1)[C@H](O)C(=O)NO [Tosedostat] + O=C(CCCCCCC(=O)Nc1ccccc1)NO [Vorinostat] (partner 1 µM)
Summary of the method: (§1)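 Five library-drug doses in √10 steps were combined with a fixed anchor-drug dose, or a single drug was given alone, by pin tool to lung cancer cell lines in 1536-well plates the day after seeding. Nuclei were stained and counted after 5 days. Relative viability is the nuclei count in treated wells over that in vehicle wells, taken as the median of duplicate plates.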

Tosedostat + Foretinib = compound: CC(C)C[C@@H](C(=O)N[C@H](C(=O)OC1CCCC1)c1ccccc1)[C@H](O)C(=O)NO [Tosedostat] + COc1cc2c(Oc3ccc(NC(=O)C4(C(=O)Nc5ccc(F)cc5)CC4)cc3F)ccnc2cc1OCCCN1CCOCC1 [Foretinib] (partner 0.25 µM)
Summary of the method: as §1

[1] = compound: CC1=NN=C(O1)C2=NN=C(C=C2)N3CCC(CC3)OC4=C(C=CC(=C4)F)Cl + CC(=O)Nc1cccc(-n2c(=O)n(C3CC3)c(=O)c3c(Nc4ccc(I)cc4F)n(C)c(=O)c(C)c32)c1 [Trametinib] (partner 0.02 µM)
Summary of the method: as §1

[2] = compound: CC1=NN=C(O1)C2=NN=C(C=C2)N3CCC(CC3)OC4=C(C=CC(=C4)F)Cl + CC1(C)CCC(c2ccc(Cl)cc2)=C(CN2CCN(c3ccc(C(=O)NS(=O)(=O)c4ccc(N[C@H](CCN5CCOCC5)CSc5ccccc5)c(S(=O)(=O)C(F)(F)F)c4)cc3)CC2)C1 [Navitoclax] (partner 0.5 µM)
Summary of the method: as §1

Cell Line	relative viability (Tosedostat + Vorinostat; first compound 0.02 µM)	relative viability (Tosedostat + Vorinostat; first compound 0.06325 µM)	relative viability (Tosedostat + Vorinostat; first compound 0.2 µM)	relative viability (Tosedostat + Vorinostat; first compound 0.6325 µM)	relative viability (Tosedostat + Vorinostat; first compound 2 µM)	relative viability (Tosedostat + Foretinib; first compound 0.02 µM)	relative viability (Tosedostat + Foretinib; first compound 0.06325 µM)	relative viability (Tosedostat + Foretinib; first compound 0.2 µM)	relative viability (Tosedostat + Foretinib; first compound 0.6325 µM)	relative viability (Tosedostat + Foretinib; first compound 2 µM)	relative viability ([1]; first compound 0.253 µM)	relative viability ([1]; first compound 0.8 µM)	relative viability ([1]; first compound 2.53 µM)	relative viability ([1]; first compound 8 µM)	relative viability ([2]; first compound 0.253 µM)	relative viability ([2]; first compound 0.8 µM)	relative viability ([2]; first compound 2.53 µM)	relative viability ([2]; first compound 8 µM)
HCC-827	0.545	0.94	0.861	0.73	0.718	0.999	1.09	1.06	0.946	0.895	0.42	0.343	0.431	0.399	0.397	0.291	0.399	0.328
HOP-62	0.819	0.516	0.612	0.561	0.372	1.27	1.09	1.09	1.02	1	0.361	0.361	0.361	0.397	0.834	0.542	0.816	0.863
IA-LM	1.09	0.844	0.791	0.899	0.878	1.18	1.19	1.19	1.12	0.903	–	–	–	–	0.131	0.137	0.127	0.12
LC-2-ad	0.835	0.702	0.7	0.688	0.512	0.987	0.939	0.941	0.842	0.806	0.369	0.35	0.349	0.328	0.318	0.242	0.307	0.218
LCLC-97TM1	0.682	0.602	0.533	0.532	0.47	0.878	0.926	0.833	0.771	0.773	0.175	–	0.191	0.148	0.623	–	0.67	0.447
LCLC-103H	0.787	0.773	0.761	0.776	0.784	0.787	0.797	0.878	0.797	0.777	0.533	0.522	0.489	0.431	–	–	–	–
LK-2	0.34	0.364	0.24	0.266	0.251	1.1	0.926	1.02	1.11	1.68	0.728	0.732	0.867	0.828	0.873	0.928	0.808	0.915
LOU-NH91	0.983	0.932	0.898	0.764	0.693	0.981	0.955	0.882	0.887	0.871	–	0.722	0.744	0.77	–	0.577	0.697	0.705
LU99A	0.573	0.583	0.445	0.388	0.381	0.894	0.729	0.758	0.708	0.674	0.525	0.59	0.577	0.509	0.836	0.723	0.858	0.582
